Results published in patent US20160281050A1, “METHODS FOR TREATING A CULTURE OF HAEMATOCOCCUS PLUVIALIS FOR CONTAMINATION USING SALT AND HYDROGEN PEROXIDE” (HELIAE DEVELOPMENT LLC, priority 2015, published 2016).

Legend:
[1] = dosed 0.015 mL/L; carboy and open raceway pond samples
[2] = system: Haematococcus pluvialis (Strain 2); experiment: % lysis and culture dry weight in flasks (Example 9); details: for percent lysis: by day 5;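 as to all read-outs here: flask cultures run in duplicate for each treatment, alongside duplicate untreated control flasks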
Description: Culture samples of Haematococcus pluvialis (Strain 2) were collected on day 5 of the culture from open raceway bioreactor #2420 operating in conditions: reactor volume of 170,000 L; Daily PAR not measured; pH of 7.3; and paddlewheel speed of 70%). Culture samples were distributed into flasks for culturing, consisting of duplicate untreated controls and duplicate treatments. […] Samples were taken from the flask cultures every few days in order to quantify % lysis, % chytrid infection, and cell dry weight for a duration of about 11 days.

hydrogen peroxide [H2O2]
time to concentration below detectable limits [1]: 120 min
time to concentration below level expected to be effective against uniflagellates (calculated concentration 0.0075 mL/L) [1]: 30 min
% Lysis ([2]; 0.0105 mL/L 3 times per day (discontinued day 5), day 6): 3.3 ± 2.4%
% Lysis ([2]; 0.0105 mL/L 3 times per day (discontinued day 5), day 9): 6.7 ± 2.4%
% Lysis ([2]; 0.0105 mL/L 3 times per day (discontinued day 5), day 11): 4.2 ± 3.5%
% Lysis ([2]; 0.0105 mL/L 3 times per day, day 0): 4.2 ± 1.2%
% Lysis ([2]; 0.0105 mL/L 3 times per day, day 3): 0.8 ± 1.2%
% Lysis ([2]; 0.0105 mL/L 3 times per day, day 4): 3.3 ± 2.4%
% Lysis ([2]; 0.0105 mL/L 3 times per day, day 5): 10.8 ± 1.2%
% Lysis ([2]; 0.0140 mL/L 1 time per day (discontinued day 5), day 6): 7.5 ± 1.2%
% Lysis ([2]; 0.0140 mL/L 1 time per day (discontinued day 5), day 9): 10.8 ± 1.2%
% Lysis ([2]; 0.0140 mL/L 1 time per day (discontinued day 5), day 11): 7.5 ± 1.2%
% Lysis ([2]; 0.0140 mL/L 1 time per day, day 0): 4.2 ± 1.2%
% Lysis ([2]; 0.0140 mL/L 1 time per day, day 3): 5.0 ± 2.4%
% Lysis ([2]; 0.0140 mL/L 1 time per day, day 4): 4.2 ± 1.2%
% Lysis ([2]; 0.0140 mL/L 1 time per day, day 5): 10.0 ± 2.4%
% Lysis ([2]; 0.0140 mL/L 2 times per day (discontinued day 5), day 6): 9.7 ± 5.9%
% Lysis ([2]; 0.0140 mL/L 2 times per day (discontinued day 5), day 9): 5.0 ± 0.0%
% Lysis ([2]; 0.0140 mL/L 2 times per day (discontinued day 5), day 11): 0.0 ± 0.0%
% Lysis ([2]; 0.0140 mL/L 2 times per day, day 0): 4.2 ± 1.2%
% Lysis ([2]; 0.0140 mL/L 2 times per day, day 3): 5.0 ± 4.7%
% Lysis ([2]; 0.0140 mL/L 2 times per day, day 4): 3.3 ± 2.4%
% Lysis ([2]; 0.0140 mL/L 2 times per day, day 5): 10.0 ± 2.4%
% Lysis ([2]; 0.0140 mL/L 3 times per day (discontinued day 5), day 6): 55.0 ± 30.6%
% Lysis ([2]; 0.0140 mL/L 3 times per day (discontinued day 5), day 9): 60.0 ± 28.3%
% Lysis ([2]; 0.0140 mL/L 3 times per day (discontinued day 5), day 11): 56.7 ± 33.0%
% Lysis ([2]; 0.0140 mL/L 3 times per day, day 0): 4.2 ± 1.2%
% Lysis ([2]; 0.0140 mL/L 3 times per day, day 3): 2.5 ± 3.5%
% Lysis ([2]; 0.0140 mL/L 3 times per day, day 4): 9.2 ± 1.2%
% Lysis ([2]; 0.0140 mL/L 3 times per day, day 5): 42.5 ± 15.3%
percent lysis ([2]; 0.014 mL/L dosed three times per day): 40%
% Lysis ([2]; 0.0175 mL/L 1 time per day (discontinued day 5), day 6): 6.7 ± 2.4%
% Lysis ([2]; 0.0175 mL/L 1 time per day (discontinued day 5), day 9): 6.7 ± 4.7%
% Lysis ([2]; 0.0175 mL/L 1 time per day (discontinued day 5), day 11): 4.2 ± 3.5%
% Lysis ([2]; 0.0175 mL/L 1 time per day, day 0): 4.2 ± 1.2%
% Lysis ([2]; 0.0175 mL/L 1 time per day, day 3): 2.5 ± 1.2%
% Lysis ([2]; 0.0175 mL/L 1 time per day, day 4): 4.2 ± 1.2%
% Lysis ([2]; 0.0175 mL/L 1 time per day, day 5): 9.2 ± 1.2%
percent lysis ([2]; all treated cultures except 0.014 mL/L three times per day): 10%
